Results as given in patent US20250154163A1, “Pyrimidinone-Containing 17-Beta-Hydroxysteroid Dehydrogenase Type 13 Inhibitors” (ENANTA PHARMACEUTICALS, INC., priority 2023, published 2025).

Biological target: T1, human HSD17β13 (stable HEK293T cell line overexpressing human HSD17β13) (Homo sapiens, UniProt Q7Z5P4)
T1 construct: expressed in transfected cells
T1 sequence (Q7Z5P4 20-300): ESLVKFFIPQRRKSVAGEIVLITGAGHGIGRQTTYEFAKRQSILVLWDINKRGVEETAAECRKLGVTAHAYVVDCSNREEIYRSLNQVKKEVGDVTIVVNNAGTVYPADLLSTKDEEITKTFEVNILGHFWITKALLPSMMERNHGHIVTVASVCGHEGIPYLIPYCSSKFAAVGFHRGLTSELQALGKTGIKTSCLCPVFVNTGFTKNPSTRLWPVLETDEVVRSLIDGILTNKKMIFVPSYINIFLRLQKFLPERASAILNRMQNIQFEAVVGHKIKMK
Assay: HSD17β13 inhibitor cell-based screening assay (conversion of estradiol-d2 to estrone-d2 by RF-MS)
Conditions: conversion of estradiol-d2 to estrone-d2 after 24 hours
Procedure: The purpose of this cell-based assay is to determine the cellular efficacy (IC50) of HSD17β13 inhibitors in a stable HEK293 T cell line overexpressing human HSD17β13. The assay measures by Rapid Fire mass-spectrometry (RF-MS) the conversion of estradiol-d2 to estrone-d2. Cytotoxicity was also assessed via luminescent signal generated by the ATPlite viability assay reagent. To screen compounds for HSD17013 inhibition, black 384-well plates were seeded with 1000× concentration of compounds in a 9-point 1:3 dilution curve (final top concentration of 10 μM) as well as 1000× concentration of 17β-estradiol-d2 (5 μM final concentration) added to all wells. HEK293T cells stably overexpressing human HSD17013 and the parent HEK293T cell lines were then seeded in the plates on top of the compounds and substrate in MEM media containing 1% charcoal/dextran-treated FBS. Supernatant is collected and immediately frozen after 24 hours of incubation, and conversion of estradiol-d2 to estrone-d2 is measured at Pure Honey by RF-MS. The remaining media in the plate was removed from the wells and replaced with ATPlite viability assay reagent. Luminescent signal from the ATPlite reagent was measured on the Envision plate reader. 10 μL of 10 mM compounds stocks (1000×) dissolved in DMSO were pipetted into the appropriate wells on the 384 LDV plate (Labcyte; cat. no.: LP-0200) and the appropriate volumes of DMSO solvent were included onto an intermediate plate to further dilute the compound stocks to complete the 9-pt dose curve (final top concentration of 10 μM). 10 μL per well of 5 mM estradiol-d2 (1000×) (Cayman; item no.: 9002846) (5 μM final concentration) dissolved in DMSO was seeded into the appropriate number of wells on the same source plate as the compounds. The Echo 650 (Labcyte) was used for compound dilutions and dispensing both the compounds and the substrate onto a dry 384-well black assay plate (Falcon/Corning; cat. no.:353962). Afterwards, cells were immediately counted and seeded onto the plate. Cells were cultured for expansion in EMEM (ATCC; cat. no.: 30-2003)+10% FBS (Hyclone; cat. no.: SH3007003)+1×PenStrep (Gibco; cat. no.: 15140-122). All media for stable cell line overexpressing HSD17013 also included […] zeocin (Invitrogen; cat. no.: 46-0509) for selection. To prepare cells for seeding into the 384-well assay plate, cells were trypsinized for 3 minutes in the incubator. The Trypsin-EDTA (0.25%) (Gibco; cat. no.: 25200056) was neutralized with EMEM complete culture medium warmed to 37° C. Cells were then centrifugated at 300×g for 5 minutes at room temperature. The cell pellet was resuspended in phenol red-free MEM (Gibco; cat. no.: 51200-038)+1% charcoal/dextran-treated FBS (Hyclone; cat. no.: SH3006803) and 1×PenStrep warmed to 37° C. Cells were then counted using the TC20 automated cell-counter (Bio-Rad) and disposable duel chamber counting slides (Bio-Rad; cat. no.: 1450016) for a cell density of 1.5E5 cells/mL to then seed into the assay plate at 7.5E3 cells/well with 50 μL of media per well. Prior to the 24-hour time point, a solution of 1% formic acid (10×) (Honeywell; cat. no.: 94318) in MEM phenol red-free MEM+1% charcoal/dextran-treated FBS and 1×PenStrep was made. ATPlite luminescent ATP detection reagent (PerkinElmer; cat. no.: 6016739) was prepared according to the manufacturer's instructions. A new 384-well Falcon plate (collection plate) was seeded with 2 μL per well of 10× formic acid and then 18 μL of cell supernatant was added onto the formic acid, resulting in a 20 μL per well solution of 0.1% formic acid (1×) in supernatant. The plate of collected supernatant was immediately frozen on dry ice before being stored at −80° C. The collection plate was shipped to Momentum Biotechnologies for analysis. The remaining supernatant in the assay plate was discarded and 25 μL of ATPlite reagent was added to each well. […]

Compound	IC50 [µM]
Cc1ncc(Cn2c(-c3cc(F)c(F)cc3C3CC3)nc3sc4c(O)c(Cl)ccc4c3c2=O)o1 [Example 61, 7-chloro-2-(2-cyclopropyl-4,5-difluorophenyl)-8-hydroxy-3-((2-methyloxazol-5-yl)methyl)benzo[4,5]thieno[2,3-d]pyrimidin-4(3H)-one]	< 0.1
O=c1c2c(nc(-c3cc(F)c(F)cc3C3CC3)n1Cc1ccno1)sc1c(O)c(Cl)ccc12 [Example 62, 7-chloro-2-(2-cyclopropyl-4,5-difluorophenyl)-8-hydroxy-3-(isoxazol-5-ylmethyl)benzo[4,5]thieno[2,3-d]pyrimidin-4(3H)-one]	< 0.1
O=c1c2c(nc(-c3cc(F)c(F)cc3C3CC3)n1Cc1cc(C(F)F)no1)sc1c(O)c(Cl)ccc12 [Example 65, 7-chloro-2-(2-cyclopropyl-4,5-difluorophenyl)-3-((3-(difluoromethyl)isoxazol-5-yl)methyl)-8-hydroxybenzo[4,5]thieno[2,3-d]pyrimidin-4(3H)-one]	< 0.1
O=c1c2c(nc(-c3ccc(C(F)(F)F)nc3C3CC3)n1Cc1cnc(C(F)(F)F)nc1)sc1c(O)c(Cl)ccc12 [Example 67, 7-chloro-2-(2-cyclopropyl-6-(trifluoromethyl)pyridin-3-yl)-8-hydroxy-3-((2-(trifluoromethyl)pyrimidin-5-yl)methyl)benzo[4,5]thieno[2,3-d]pyrimidin-4(3H)-one]	< 0.1
O=c1c2c(nc(-c3ccc(C(F)(F)F)nc3C3CC3)n1Cc1ccc(C(F)(F)F)nc1)sc1c(O)c(Cl)ccc12 [Example 68, 7-chloro-2-(2-cyclopropyl-6-(trifluoromethyl)pyridin-3-yl)-8-hydroxy-3-((6-(trifluoromethyl)pyridin-3-yl)methyl)benzo[4,5]thieno[2,3-d]pyrimidin-4(3H)-one]	< 0.1
CS(=O)(=O)c1ccc(-c2nc3sc4c(O)c(Cl)ccc4c3c(=O)n2Cc2ccc(C(F)(F)F)nc2)c(C2CC2)c1 [Example 69, 7-chloro-2-(2-cyclopropyl-4-(methylsulfonyl)phenyl)-8-hydroxy-3-((6-(trifluoromethyl)pyridin-3-yl)methyl)benzo[4,5]thieno[2,3-d]pyrimidin-4(3H)-one]	< 0.1
Cn1cc(Cn2c(-c3ccc(S(C)(=O)=O)cc3C3CC3)nc3sc4c(O)c(Cl)ccc4c3c2=O)ccc1=O [Example 70, 7-chloro-2-(2-cyclopropyl-4-(methylsulfonyl)phenyl)-8-hydroxy-3-((1-methyl-6-oxo-1,6-dihydropyridin-3-yl)methyl)benzo[4,5]thieno[2,3-d]pyrimidin-4(3H)-one]	< 0.1
COCCOc1ccc(-c2nc3sc4c(O)c(Cl)ccc4c3c(=O)n2Cc2cnco2)c(C2CC2)c1 [Example 74]	< 0.1
CS(=O)(=O)c1ccc(-c2nc3sc4c(O)c(Cl)ccc4c3c(=O)n2Cc2cnco2)c(C2CC2)c1 [Example 80]	< 0.1
CS(=O)(=O)c1ccc(-c2nc3sc4c(O)c(Cl)ccc4c3c(=O)n2Cc2cc(C(F)(F)F)no2)c(C2CC2)c1 [Example 81]	< 0.1
O=c1c2c(nc(-c3cc(F)c(Cl)cc3C3CC3)n1Cc1cc(C(F)(F)F)no1)sc1c(O)c(Cl)ccc12 [Example 84]	< 0.1
O=c1c2c(nc(-c3ccccc3C3CC3)n1Cc1cnco1)sc1c(O)c(Cl)ccc12 [Example 87]	< 0.1
COc1ccc(-c2nc3sc4c(O)c(Cl)ccc4c3c(=O)n2C[C@@H]2CC(=O)N(C)C2)c(C2CC2)c1 [Example 88]	< 0.1
O=c1c2c(nc(-c3ncc(F)cc3C3CC3)n1Cc1cnco1)sc1c(O)c(Cl)ccc12 [Example 89]	< 0.1
O=c1c2c(nc(-c3ncc(C(F)(F)F)cc3C3CC3)n1Cc1cnco1)sc1c(O)c(Cl)ccc12 [Example 90]	< 0.1
Cc1cc(-c2nc3sc4c(O)c(Cl)ccc4c3c(=O)n2Cc2cnco2)c(C2CC2)s1 [Example 91]	< 0.1

Compound	IC50 [µM]
O=c1c2c(nc(-c3ccc(C(F)(F)F)nc3C3CC3)n1Cc1cnco1)sc1c(O)c(Cl)ccc12 [Example 92]	< 0.1
COc1ccc(-c2nc3sc4c(O)c(Cl)ccc4c3c(=O)n2Cc2cnco2)c(C2CC2)n1 [Example 93]	< 0.1
Cc1cc(C2CC2)c(-c2nc3sc4c(O)c(Cl)ccc4c3c(=O)n2Cc2cnco2)s1 [Example 94]	< 0.1
COCCn1cc(Cn2c(-c3ccc(OC)cc3C3CC3)nc3sc4c(O)c(Cl)ccc4c3c2=O)cn1 [Example 95]	< 0.1
N#Cc1ccc(-c2nc3sc4c(O)c(Cl)ccc4c3c(=O)n2Cc2cc(C(F)(F)F)no2)c(C2CC2)c1 [Example 98]	< 0.1
O=c1c2c(nc(-c3ncc(C(F)(F)F)cc3C3CC3)n1Cc1ccc(C(F)(F)F)nc1)sc1c(O)c(Cl)ccc12 [Example 100]	< 0.1
O=c1c2c(nc(-c3ncc(F)cc3C3CC3)n1Cc1cnc(C(F)(F)F)nc1)sc1c(O)c(Cl)ccc12 [Example 101]	< 0.1
O=c1c2c(nc(-c3ncc(F)cc3C3CC3)n1Cc1ccc(C(F)(F)F)nc1)sc1c(O)c(Cl)ccc12 [Example 102]	< 0.1
O=c1c2c(nc(-c3ncc(Cl)cc3C3CC3)n1Cc1cc(C(F)(F)F)no1)sc1c(O)c(Cl)ccc12 [Example 103]	< 0.1
COc1cc(C2CC2)c(-c2nc3sc4c(O)c(Cl)ccc4c3c(=O)n2Cc2cnco2)cc1Br [Example 104, 2-(5-bromo-2-cyclopropyl-4-methoxyphenyl)-7-chloro-8-hydroxy-3-(oxazol-5-ylmethyl)benzo[4,5]thieno[2,3-d]pyrimidin-4(3H)-one]	< 0.1
COc1cc(C2CC2)c(-c2nc3sc4c(O)c(Cl)ccc4c3c(=O)n2Cc2cnco2)cc1C1CC1 [Example 107, 7-chloro-2-(2,5-dicyclopropyl-4-methoxyphenyl)-8-hydroxy-3-(oxazol-5-ylmethyl)benzo[4,5]thieno[2,3-d]pyrimidin-4(3H)-one]	0.1 to 0.5
COc1cc(C2CC2)c(-c2nc3sc4c(O)c(Cl)ccc4c3c(=O)n2Cc2cnco2)cc1C [Example 108]	< 0.1
COc1cc(C2CC2)c(-c2nc3sc4c(O)c(Cl)ccc4c3c(=O)n2Cc2cnco2)cc1C1CCCC1 [Example 109, 7-chloro-2-(5-cyclopentyl-2-cyclopropyl-4-methoxyphenyl)-8-hydroxy-3-(oxazol-5-ylmethyl)benzo[4,5]thieno[2,3-d]pyrimidin-4(3H)-one]	0.5 to 1
O=c1c2c(nc(-c3ccc(-c4ncco4)cc3C3CC3)n1Cc1cnco1)sc1c(O)c(Cl)ccc12 [Example 110, 7-chloro-2-(2-cyclopropyl-4-(oxazol-2-yl)phenyl)-8-hydroxy-3-(oxazol-5-ylmethyl)benzo[4,5]thieno[2,3-d]pyrimidin-4(3H)-one]	< 0.1
N#Cc1ccc(-c2nc3sc4c(O)c(Cl)ccc4c3c(=O)n2Cc2cnco2)c(C2CC2)c1 [Example 111, 4-(7-chloro-8-hydroxy-3-(oxazol-5-ylmethyl)-4-oxo-3,4-dihydrobenzo[4,5]thieno[2,3-d]pyrimidin-2-yl)-3-cyclopropylbenzonitrile]	< 0.1
